Test results: patent US12037344B2, “NLRP3 modulators” (INNATE TUMOR IMMUNITY, INC., priority 2018, dated 2024)

Columns and labels:
THP-1 cells = test: Measurement of IL-1β production, hTRF protocol (second alternative procedure), THP-1 cells; assay type: cell-based, human; details: Homo sapiens, THP-1, IL-1β production, human; read-out: NLRP3 hILIB EC50
How it was run: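 Compounds, dilution series starting at a final 10 μM, were incubated 2 hours at 37° C with PMA-differentiated THP-1 cells (50 ng/ml overnight; 50,000 cells/well, 2% FBS RPMI). Released IL-1β quantified in supernatant by hTRF kit with 1:40 antibody dilution, 4° C overnight, 665/615 nm ratio.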

TLR7 = target: T1, TLR7 (Homo sapiens, UniProt Q9NYK1); test: In vitro human TLR7 binding reporter assay (HEK-Blue, NF-kB/AP1-inducible SEAP); assay type: cell-based; details: activity range class, read-out: TLR7 Agonist EC50
T1 construct: human HEK-Blue cells co-expressing a TLR7 or TLR8 gene
T1 sequence (Q9NYK1 27-1049): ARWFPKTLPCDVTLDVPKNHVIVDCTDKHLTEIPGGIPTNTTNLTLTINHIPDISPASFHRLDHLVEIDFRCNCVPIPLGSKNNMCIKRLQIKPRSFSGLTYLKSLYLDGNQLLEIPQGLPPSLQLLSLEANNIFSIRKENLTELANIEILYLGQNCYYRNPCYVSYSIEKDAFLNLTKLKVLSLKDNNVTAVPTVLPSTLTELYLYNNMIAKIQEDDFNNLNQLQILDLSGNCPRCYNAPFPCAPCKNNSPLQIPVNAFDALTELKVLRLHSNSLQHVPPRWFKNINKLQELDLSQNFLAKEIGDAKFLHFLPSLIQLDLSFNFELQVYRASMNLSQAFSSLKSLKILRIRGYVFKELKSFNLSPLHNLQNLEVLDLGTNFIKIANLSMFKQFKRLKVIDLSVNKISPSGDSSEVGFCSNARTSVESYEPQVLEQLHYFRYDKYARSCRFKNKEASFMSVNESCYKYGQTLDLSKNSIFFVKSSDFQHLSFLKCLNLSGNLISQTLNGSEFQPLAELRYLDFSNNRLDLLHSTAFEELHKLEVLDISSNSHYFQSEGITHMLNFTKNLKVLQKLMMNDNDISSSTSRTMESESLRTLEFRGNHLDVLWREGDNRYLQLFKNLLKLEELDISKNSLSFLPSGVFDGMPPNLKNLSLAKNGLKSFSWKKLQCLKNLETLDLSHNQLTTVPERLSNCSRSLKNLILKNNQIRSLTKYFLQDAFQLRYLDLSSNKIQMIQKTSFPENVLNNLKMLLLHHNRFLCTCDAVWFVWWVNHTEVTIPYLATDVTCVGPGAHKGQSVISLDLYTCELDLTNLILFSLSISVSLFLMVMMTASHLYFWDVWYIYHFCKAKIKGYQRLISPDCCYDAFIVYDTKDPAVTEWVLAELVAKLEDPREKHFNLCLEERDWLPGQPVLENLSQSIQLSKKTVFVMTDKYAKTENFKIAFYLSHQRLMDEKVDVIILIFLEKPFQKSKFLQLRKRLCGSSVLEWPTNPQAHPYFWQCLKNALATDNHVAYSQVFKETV
How it was run: (§1)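 Cells are seeded and grown for 24 h. Compounds or DMSO are then added and incubated 18 h at 37 °C. Quanti-Blue is added, and SEAP is read after thirty minutes. EC50 values are normalized, with RLU from 50 μM reference standard setting 100% Ymax.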

TLR8 = target: T2, TLR8 (Homo sapiens, UniProt Q9NR97); test: In vitro human TLR8 binding reporter assay (HEK-Blue, NF-kB/AP1-inducible SEAP); assay type: cell-based; details: activity range class, read-out: TLR8 Agonist EC50
T2 construct: human HEK-Blue cells co-expressing a TLR7 or TLR8 gene
T2 sequence (Q9NR97 27-1041): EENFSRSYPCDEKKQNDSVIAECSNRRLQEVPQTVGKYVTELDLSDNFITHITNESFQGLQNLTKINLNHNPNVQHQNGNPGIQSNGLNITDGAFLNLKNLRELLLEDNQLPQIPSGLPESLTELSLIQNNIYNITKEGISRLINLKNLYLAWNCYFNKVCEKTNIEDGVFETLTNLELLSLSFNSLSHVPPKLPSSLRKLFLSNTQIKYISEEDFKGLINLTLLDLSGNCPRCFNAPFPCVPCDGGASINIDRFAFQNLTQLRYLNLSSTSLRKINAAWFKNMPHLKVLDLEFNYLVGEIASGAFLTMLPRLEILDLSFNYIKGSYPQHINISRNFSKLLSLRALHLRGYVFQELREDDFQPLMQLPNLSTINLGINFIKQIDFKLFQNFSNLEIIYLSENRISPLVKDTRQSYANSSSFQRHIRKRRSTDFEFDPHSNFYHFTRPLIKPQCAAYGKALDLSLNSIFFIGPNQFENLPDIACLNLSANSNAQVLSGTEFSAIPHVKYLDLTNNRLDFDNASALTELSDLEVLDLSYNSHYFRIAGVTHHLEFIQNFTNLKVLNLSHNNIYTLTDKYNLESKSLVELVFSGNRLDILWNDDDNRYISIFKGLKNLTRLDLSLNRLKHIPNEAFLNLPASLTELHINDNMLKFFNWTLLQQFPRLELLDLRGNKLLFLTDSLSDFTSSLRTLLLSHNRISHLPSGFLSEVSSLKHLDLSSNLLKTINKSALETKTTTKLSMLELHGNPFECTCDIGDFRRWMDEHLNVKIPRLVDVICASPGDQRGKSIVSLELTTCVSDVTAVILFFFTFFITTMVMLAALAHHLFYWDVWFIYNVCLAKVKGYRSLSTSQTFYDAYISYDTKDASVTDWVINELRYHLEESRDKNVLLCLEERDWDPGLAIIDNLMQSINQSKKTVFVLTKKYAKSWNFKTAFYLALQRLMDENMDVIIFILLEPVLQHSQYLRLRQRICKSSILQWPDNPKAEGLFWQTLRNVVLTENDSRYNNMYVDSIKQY
How it was run: as §1

| Structure (SMILES) | EC50 (THP-1 cells) | EC50 (TLR7) | EC50 (TLR8) |
| --- | --- | --- | --- |
| CC(Cn1cc2c(N)nc3cc(-c4ccn[nH]4)ccc3c2n1)NS(C)(=O)=O (stereo not drawn) [Example 301] | 1.4 µM | > 100 µM | > 100 µM |
| CC(Cn1ncc2c(N)nc3cc(-c4cc[nH]n4)ccc3c21)NS(C)(=O)=O (stereo not drawn) [Example 302] | 3.49 µM | > 100 µM | > 100 µM |
| COCCCn1cc2c(N)nc3cc(-c4cc[nH]n4)ccc3c2n1 [Example 303] | 0.21 µM | > 100 µM | > 100 µM |
| Nc1nc2cc(-c3cc[nH]n3)ccc2c2nn(CCN3CCCC3)cc12 [Example 304] | 0.66 µM | > 100 µM | > 100 µM |
| CCCCn1cc2c(N)nc3cc(-c4cc[nH]n4)ccc3c2n1 [Example 305] | 0.29 µM | > 100 µM | > 100 µM |
| COCC(O)Cn1ncc2c(N)nc3cc(-c4cc[nH]n4)ccc3c21 (stereo not drawn) [Example 306] | 1.26 µM | > 100 µM | > 100 µM |
| COCC(O)Cn1cc2c(N)nc3cc(-c4cc[nH]n4)ccc3c2n1 (stereo not drawn) [Example 307] | 0.43 µM | > 100 µM | > 100 µM |
| C[C@H](CO)Cn1cc2c(N)nc3cc(-c4cc[nH]n4)ccc3c2n1 [Example 308] | 0.41 µM | > 100 µM | > 100 µM |
| Nc1nc2cc(-c3cc[nH]n3)ccc2c2nn(CCOCCO)cc12 [Example 309] | 0.75 µM | > 100 µM | > 100 µM |
| COCCOCCn1cc2c(N)nc3cc(-c4cc[nH]n4)ccc3c2n1 [Example 310] | 0.75 µM | > 100 µM | > 100 µM |
| Nc1nc2cc(-c3cc[nH]n3)ccc2c2c1cnn2C1CCOCC1 [Example 311] | 0.71 µM | > 100 µM | > 100 µM |
| Nc1nc2cc(-c3cc[nH]n3)ccc2c2nn(C3CCCOC3)cc12 (stereo not drawn) [Example 312] | 0.22 µM | > 100 µM | > 100 µM |
| CC(C)(CO)Cn1cc2c(N)nc3cc(-c4cc[nH]n4)ccc3c2n1 [Example 313] | 0.26 µM | > 100 µM | > 100 µM |
| Nc1nc2cc(-c3cc[nH]n3)ccc2c2nn(C3CCCCC3O)cc12 (stereo not drawn) [Example 317] | 2.42 µM | > 100 µM | > 100 µM |
| Nc1nc2cc(-c3cc[nH]n3)ccc2c2nn(CC3(O)CCOCC3)cc12 [Example 320] | 6.57 µM | > 100 µM | > 100 µM |
| Nc1nc2cc(-c3cc[nH]n3)ccc2c2nn(CCF)cc12 [Example 321] | 0.19 µM | > 100 µM | > 100 µM |

| Structure (SMILES) | EC50 (THP-1 cells) | EC50 (TLR7) | EC50 (TLR8) |
| --- | --- | --- | --- |
| COC(C)(C)Cn1cc2c(N)nc3cc(-c4cc[nH]n4)ccc3c2n1 [Example 322] | 0.83 µM | > 100 µM | > 100 µM |
| Nc1nc2cc(-c3cc[nH]n3)ccc2c2nn(C3COCC3O)cc12 (stereo not drawn) [Example 323] | 0.78 µM | > 100 µM | > 100 µM |
| CC(C)n1cc2c(N)nc3cc(-c4cc[nH]n4)ccc3c2n1 [Example 326] | 0.22 µM | > 100 µM | > 100 µM |
| Nc1nc2cc(-c3cc[nH]n3)ccc2c2nn(C[C@H]3CCCO3)cc12 [Example 329] | 0.31 µM | > 100 µM | > 100 µM |
| Nc1nc2cc(-c3cc[nH]n3)ccc2c2nn(C[C@@H]3CCCO3)cc12 [Example 330] | 0.17 µM | > 100 µM | > 100 µM |
| COC(C)Cn1cc2c(N)nc3cc(-c4cc[nH]n4)ccc3c2n1 (stereo not drawn) [Example 331] | 0.08 µM | > 100 µM | > 100 µM |
| C[C@@H](CO)Cn1cc2c(N)nc3cc(-c4cc[nH]n4)ccc3c2n1 [Example 332] | 0.21 µM | > 100 µM | > 100 µM |
| Nc1nc2cc(-c3cc[nH]n3)ccc2c2nn(CCOCC(F)(F)F)cc12 [Example 333] | 0.24 µM | > 100 µM | > 100 µM |
| CCn1cc2c(N)nc3cc(-c4cc[nH]n4)ccc3c2n1 [Example 334] | 0.11 µM | > 100 µM | > 100 µM |
| Nc1nc2cc(-c3cc[nH]n3)ccc2c2nn(CC3CC(F)(F)C3)cc12 [Example 335] | 0.39 µM | > 100 µM | > 100 µM |
| COCC(C)n1cc2c(N)nc3cc(-c4cc[nH]n4)ccc3c2n1 (stereo not drawn) [Example 336] | 0.47 µM | > 100 µM | > 100 µM |
| Nc1nc2cc(-c3cc[nH]n3)ccc2c2nn(C3CCC(O)C3)cc12 (stereo not drawn) [Example 339] | 0.21 µM | > 100 µM | > 100 µM |
| CC1(O)CCCC1n1cc2c(N)nc3cc(-c4cc[nH]n4)ccc3c2n1 (stereo not drawn) [Example 343] | 0.61 µM | > 100 µM | > 100 µM |
| Nc1nc2cc(-c3cc[nH]n3)ccc2c2nn(CCC(F)(F)F)cc12 [Example 348] | 0.62 µM | > 100 µM | > 100 µM |
| Nc1nc2cc(-c3cc[nH]n3)ccc2c2nn(CCOC(F)F)cc12 [Example 349] | 0.35 µM | > 100 µM | > 100 µM |
| Nc1nc2cc(-c3cc[nH]n3)ccc2c2nn(CCCOC(F)(F)F)cc12 [Example 350] | 0.35 µM | > 100 µM | > 100 µM |
